Experimental data reported in the NIST ThermoML archive (doi:10.1021/je060107n).
± gives the expanded uncertainty stated by the source.

Assay: mn = molality of the nth substance listed, in mol/kg
Conditions: 101 kPa, Liquid; for viscosity: Capillary tube (Ostwald / Ubbelohde) method; for speed of sound: Linear variable-path acoustic interferometer; for mass density: Pycnometric method

CC(=O)[O-].CC(=O)[O-].[Mg+2] [magnesium acetate] + O
Conditions | mass density [kg/m3] | speed of sound [m/s] | viscosity [mPa·s]
293.15 K, m1 = 0.0414 | – | 1487.6 ± 1.9 | –
293.15 K, m1 = 0.0831 | – | 1497.5 ± 1.9 | –
293.15 K, m1 = 0.1671 | – | 1508.3 ± 1.9 | –
293.15 K, m1 = 0.4247 | – | 1545.4 ± 1.9 | –
293.15 K, m1 = 0.646 | – | 1577.8 ± 1.9 | –
293.15 K, m1 = 0.8751 | – | 1609.8 ± 1.9 | –
293.15 K, m1 = 1.106 | – | 1639.8 ± 1.9 | –
293.15 K, m1 = 1.354 | – | 1665.7 ± 2 | –
293.15 K, m1 = 1.608 | – | 1697.3 ± 2 | –
293.15 K, m1 = 1.866 | – | 1725.6 ± 2 | –
293.15 K, m1 = 2.134 | – | 1754.5 ± 2 | –
293.15 K, m1 = 2.411 | – | 1782.6 ± 2 | –
293.15 K, m1 = 2.622 | – | 1798.8 ± 2 | –
293.15 K, m1 = 3.043 | – | 1832.8 ± 2.1 | 14.98 ± 0.23
293.15 K, m1 = 3.437 | – | 1866.8 ± 2.1 | 24.4 ± 0.39
293.15 K, m1 = 3.819 | – | 1884.3 ± 2.1 | –
293.15 K, m1 = 4.001 | – | – | 41.34 ± 0.7
293.15 K, m1 = 4.547 | – | 1917.4 ± 2.1 | –
293.15 K, m1 = 4.563 | – | – | 75.04 ± 1.4
293.15 K, m1 = 4.929 | – | – | 97.76 ± 2.1
293.15 K, m1 = 5.165 | – | 1940.8 ± 2.2 | –
293.15 K, m1 = 5.732 | – | 1954.7 ± 2.2 | –
294.9 K, m1 = 2.411 | 1149 ± 0.7 | – | –
295.15 K, m1 = 0.4247 | 1029.4 ± 0.6 | – | –
295.15 K, m1 = 0.8751 | 1059.6 ± 0.6 | – | –
295.4 K, m1 = 0.1671 | 1010.2 ± 0.6 | – | –
296 K, m1 = 1.354 | 1089.6 ± 0.7 | – | –
296.1 K, m1 = 1.866 | 1118.6 ± 0.7 | – | –
297.95 K, m1 = 2.411 | 1147.7 ± 0.7 | – | –
298.05 K, m1 = 1.106 | 1074.8 ± 0.6 | – | –
298.15 K, m1 = 0.0414 | – | 1501.7 ± 1.9 | 0.9322 ± 0.013
298.15 K, m1 = 0.0831 | – | 1510.4 ± 1.9 | 0.964 ± 0.013
298.15 K, m1 = 0.1671 | – | 1520.6 ± 1.9 | 1.034 ± 0.014
298.15 K, m1 = 0.4247 | – | 1556.9 ± 1.9 | 1.286 ± 0.017
298.15 K, m1 = 0.646 | – | 1587.3 ± 1.9 | 1.566 ± 0.021
298.15 K, m1 = 0.8751 | – | 1616.2 ± 1.9 | 1.873 ± 0.025
298.15 K, m1 = 1.106 | – | 1645.9 ± 1.9 | 2.31 ± 0.031
298.15 K, m1 = 1.354 | – | 1671.1 ± 2 | 2.821 ± 0.039
298.15 K, m1 = 1.608 | – | 1700.3 ± 2 | 2.821 ± 0.039
298.15 K, m1 = 1.866 | – | 1727.7 ± 2 | 4.32 ± 0.061
298.15 K, m1 = 2.134 | – | 1754.6 ± 2 | 5.472 ± 0.077
298.15 K, m1 = 2.411 | – | 1781.9 ± 2 | 7.183 ± 0.1
298.15 K, m1 = 2.622 | – | 1797.3 ± 2 | 8.354 ± 0.12
298.15 K, m1 = 3.043 | – | 1829.5 ± 2.1 | 12.02 ± 0.18
298.15 K, m1 = 3.437 | – | 1861.2 ± 2.1 | 19.05 ± 0.3
298.15 K, m1 = 3.819 | – | 1878 ± 2.1 | –
298.15 K, m1 = 4.001 | – | – | 31.38 ± 0.51
298.15 K, m1 = 4.547 | – | 1908 ± 2.1 | –
298.15 K, m1 = 4.563 | – | – | 55 ± 0.93
298.15 K, m1 = 4.929 | – | – | 70.36 ± 1.3
298.15 K, m1 = 5.165 | – | 1929.7 ± 2.1 | –
298.15 K, m1 = 5.41 | – | – | 141.2 ± 2.8
298.15 K, m1 = 5.732 | – | 1940.2 ± 2.2 | –
298.3 K, m1 = 3.043 | 1175 ± 1 | – | –
298.7 K, m1 = 2.134 | 1132.2 ± 0.7 | – | –
298.75 K, m1 = 0.0831 | 1003.1 ± 0.6 | – | –
298.8 K, m1 = 3.437 | 1195.5 ± 0.8 | – | –
298.85 K, m1 = 0.646 | 1044 ± 0.7 | – | –
298.95 K, m1 = 0.8751 | 1058.5 ± 0.7 | – | –
299.15 K, m1 = 0.4247 | 1028.4 ± 0.6 | – | –
299.2 K, m1 = 2.622 | 1155.8 ± 0.7 | – | –
299.3 K, m1 = 1.866 | 1117.5 ± 0.7 | – | –
299.55 K, m1 = 5.732 | 1267.4 ± 0.9 | – | –
299.6 K, m1 = 0.1671 | 1009.1 ± 0.6 | – | –
299.65 K, m1 = 1.354 | 1088.4 ± 0.7 | – | –
300.6 K, m1 = 1.608 | 1103.6 ± 0.7 | – | –
300.85 K, m1 = 0.0414 | 999.3 ± 0.63 | – | –
301 K, m1 = 2.411 | 1146.5 ± 0.8 | – | –
301.05 K, m1 = 3.043 | 1173.8 ± 0.8 | – | –
301.35 K, m1 = 1.327 | 1086.4 ± 0.7 | – | –
301.5 K, m1 = 3.437 | 1194.2 ± 0.8 | – | –
301.55 K, m1 = 2.134 | 1131.1 ± 0.7 | – | –
301.7 K, m1 = 1.106 | 1073.7 ± 0.7 | – | –
301.75 K, m1 = 5.732 | 1266 ± 0.9 | – | –
302.05 K, m1 = 2.622 | 1154.6 ± 0.8 | – | –
302.05 K, m1 = 3.819 | 1205.9 ± 0.8 | – | –
302.25 K, m1 = 0.646 | 1043 ± 0.7 | – | –
302.4 K, m1 = 1.866 | 1116.3 ± 0.7 | – | –
302.4 K, m1 = 5.165 | 1249.6 ± 0.9 | – | –
302.5 K, m1 = 0.0831 | 1002 ± 0.6 | – | –
302.55 K, m1 = 0.8751 | 1057.4 ± 0.7 | – | –
302.7 K, m1 = 1.354 | 1087.4 ± 0.7 | – | –
302.75 K, m1 = 0.4247 | 1027.2 ± 0.7 | – | –
302.95 K, m1 = 4.547 | 1229.9 ± 0.8 | – | –
303.15 K, m1 = 0.0414 | – | 1513.4 ± 1.9 | 0.835 ± 0.011
303.15 K, m1 = 0.0831 | – | 1521.5 ± 1.9 | 0.8624 ± 0.011
303.15 K, m1 = 0.1671 | – | 1532.2 ± 1.9 | 0.9234 ± 0.012
303.15 K, m1 = 0.4247 | – | 1567.4 ± 1.9 | 1.141 ± 0.015
303.15 K, m1 = 0.646 | – | 1595.7 ± 1.9 | 1.383 ± 0.018
303.15 K, m1 = 0.8751 | – | 1625.4 ± 1.9 | 1.64 ± 0.022
303.15 K, m1 = 1.106 | – | 1651.6 ± 1.9 | 2.014 ± 0.027
303.15 K, m1 = 1.354 | – | 1676.1 ± 2 | 2.446 ± 0.033
303.15 K, m1 = 1.608 | – | 1703 ± 2 | 2.446 ± 0.033
303.15 K, m1 = 1.866 | – | 1728.9 ± 2 | 3.688 ± 0.051
303.15 K, m1 = 2.134 | – | 1755.5 ± 2 | 4.619 ± 0.064
303.15 K, m1 = 2.411 | – | 1781.3 ± 2 | 6.056 ± 0.085
303.15 K, m1 = 2.622 | – | 1795.2 ± 2 | 6.928 ± 0.098
303.15 K, m1 = 3.043 | – | 1824.8 ± 2.1 | 9.798 ± 0.14
303.15 K, m1 = 3.437 | – | 1855.5 ± 2.1 | 15.2 ± 0.23
303.15 K, m1 = 3.819 | – | 1870.5 ± 2.1 | –
303.15 K, m1 = 4.001 | – | – | 24.27 ± 0.38
303.15 K, m1 = 4.547 | – | 1899.1 ± 2.1 | –
303.15 K, m1 = 4.563 | – | – | 41.02 ± 0.68
303.15 K, m1 = 4.929 | – | – | 51.77 ± 0.92
303.15 K, m1 = 5.165 | – | 1919 ± 2.1 | –
303.15 K, m1 = 5.41 | – | – | 99.4 ± 1.6
303.15 K, m1 = 5.732 | – | 1926.8 ± 2.1 | 135.8 ± 3
303.3 K, m1 = 0.1671 | 1008 ± 0.6 | – | –
303.65 K, m1 = 1.608 | 1102.5 ± 0.7 | – | –
303.75 K, m1 = 2.411 | 1145.4 ± 1.1 | – | –
303.75 K, m1 = 3.043 | 1172.5 ± 0.8 | – | –
303.75 K, m1 = 5.732 | 1264.8 ± 0.9 | – | –
303.9 K, m1 = 3.437 | 1193.1 ± 0.7 | – | –
304.4 K, m1 = 3.819 | 1204.7 ± 0.8 | – | –
304.45 K, m1 = 0.0414 | 998.24 ± 0.63 | – | –
304.55 K, m1 = 2.134 | 1129.8 ± 0.8 | – | –
304.6 K, m1 = 5.165 | 1248.3 ± 0.9 | – | –
304.7 K, m1 = 1.327 | 1085.2 ± 0.7 | – | –
304.8 K, m1 = 2.622 | 1153.3 ± 0.8 | – | –
304.95 K, m1 = 1.106 | 1072.5 ± 0.7 | – | –
305.35 K, m1 = 4.547 | 1228.6 ± 0.8 | – | –
